Data set [1] is described as follows: Chemical stability in artificial gastric fluid (SGF without enzymes). Particulars: 10 μM in SGF without enzymes, pH=1.4, 37° C.
Data set [2] can be described thus: General cytotoxicity on HepG2 cells (CC50; therapeutic index CC50 HepG2/IC50 Mino). In kind it is cell-based. The note with it: human, HepG2 cells (hepatocellular carcinoma), 72 hours, Alamar Blue. The protocol:
(§1) The CC50 values were determined in the test for General cytotoxicity on HepG2 cells (hepatocellular carcinoma, ATCC® HB-8065™). 2*10^4 cells (in 50 μl) per well were seeded in 96-well plates (Corning, #3599) in DMEM medium (PanEco, #S420p), after 24 h of incubation 150 μl of candidate compounds were added to each well in the range of final concentrations from 200 μM to 4 μM and the plate was incubated in a total volume of 200 μl for 72 hours. Viability of the cells was assessed using Alamar Blue dye (Invitrogen, #DAL 1100). CC50 was determined similarly (table 10).
(§2) The relationship between toxic (CC50) and a therapeutic (IC50) effects of the dose is the therapeutic index, which can be expressed as the ratio between CC50 (HepG2) (general cytotoxicity of the candidate) and IC50 (Mino) (antiproliferative activity on the target cells): […]
Background: Resazurin is reduced to fluorescent resorufin, in cell work by metabolically active cells.

Data set [3] deals with HepG2 cells (hepatocellular carcinoma). The description is as above. The class given is cell-based. Particulars: therapeutic index. As to the method: as §1, §2
For data set [4], the system named is Mino (mantle cell lymphoma). The data set can be described thus: Antiproliferative activity, Mino cells (Alamar Blue). In kind it is cell-based. Particulars: Homo sapiens. The protocol:
(§3) Antiproliferative activity of BTK inhibitors was measured in cell-based bioassay on B-cells cultures: Mino (mantle cell lymphoma, ATCC® CRL-3000™), Z-138 (mantle cell lymphoma, ATCC® CRL-3001™) and DOHH2 (follicular lymphoma, Creative Bioarray CSC-C0219) using cell viability reagent Alamar Blue (Invitrogen, #DAL 1100). Cells were cultured in 10% FB S-supplemented (HyClone, #SH3008803/Gibco, #16140-071) RPMI-1640 (PanEco, #S330p) for at least 1 passage after thawing, washed with PBS and passaged in 96-well culture plates (Corning, #3599) with growth medium with 10% FBS (HyClone, #SH3008803/Gibco, #16140-071) and antibiotic (50 μg/ml of gentamicin (Biolot, #1.3.16))≈3*10^4 cells in 50 μl of medium per well.
(§4) The compounds were dissolved in DMSO and diluted with the assay medium to final concentrations ranging from […]. 150 μl of each diluted compound were then added to each well (final concentration of DMSO was less than 1%) and incubated at 37° C. in an incubator under 5% of CO2 for 72 h. After incubation, 20 μl of Alamar Blue reagent (Invitrogen, #DAL1100) were added to each well. The plates were shaked on an orbital shaker (Biosan, Latvia) and then incubated for 14-16 hours at 37° C. in the incubator.
(§5) The number of living cells were estimated, measuring the fluorescence signal at the excitation wavelength (REx) of 540 nm and the emission wavelength (λEm) of 590 nm on a microplate reader (Tecan Infinite M200Pro, Switzerland).
(§6) For each compound, IC50 was calculated using Magellan 7.2 software (Tecan, Switzerland) approximating experimental points by four-parameter logistic model with the optimization by Levenberg-Marquardt.

For data set [5], the system named is Z-138 (mantle cell lymphoma). The data set can be described thus: Antiproliferative activity, Z-138 cells (Alamar Blue). The class given is cell-based. Particulars: Homo sapiens. The protocol:
as §3, §4, §5, §6

The mark [6] stands for this setting: Table 10, average of several tests.
Where [7] appears, read: Table 10, 72 h, average of several tests.

These results are taken from patent US20190352276A1, “INHIBITORS OF BRUTON'S TYROSINE KINASE” (Joint Stock Company "Biocad", priority 2016, published 2019).

A value given as a limit tells only on which side of the number the result lay.

`CC#CC(=O)N1CC(n2nc(-c3ccc(Oc4ccncc4)cc3)c3cncc(Cl)c32)C1` [BCD-BTK - 281, 1-(3-(7-chloro-3-(4-(pyridin-4-yloxy)phenyl)-1H-pyrazolo[4,3-c]pyridin-1-yl)azetidin-1-yl)but-2-yn-1-one]: the “Amount of substance in the sample in % (chemical stability)” value (shortened to “Amount of substance in the sample in %”) in data set [1] is 100%.
For `C=CC(=O)N1CC(n2nc(-c3ccc(Oc4ccncc4)cc3)c3cncc(Cl)c32)C1` [BCD-BTK - 282, 1-(3-(7-chloro-3-(4-(pyridin-4-yloxy)phenyl)-1H-pyrazolo[4,3-c]pyridin-1-yl)azetidin-1-yl)prop-2-en-1-one], in data set [1], the “Amount of substance in the sample in %” value turned out to be 100%.
Consider `CC#CC(=O)N1CC[C@@H](Cn2nc(-c3ccc(C(=O)Nc4ccccn4)cc3)c3cncc(Cl)c32)C1` [BCD-BTK - 286, (R)-4-(1-((1-(but-2-ynoyl)pyrrolidin-3-yl)methyl)-7-chloro-1H-pyrazolo[4,3-c]pyridin-3-yl)-N-(pyridin-2-yl)benzamide], for which the “Amount of substance in the sample in %” value in data set [1] is reported as 100%.
As to `CC#CC(=O)N1CC[C@H](Cn2nc(-c3ccc(C(=O)Nc4ccccn4)cc3)c3cncc(Cl)c32)C1` [BCD-BTK - 287, (S)-4-(1-((1-(but-2-ynoyl)pyrrolidin-3-yl)methyl)-7-chloro-1H-pyrazolo[4,3-c]pyridin-3-yl)-N-(pyridin-2-yl)benzamide], the “Amount of substance in the sample in %” value in data set [1] turned out to be 100%.
The same measure, in the same setting: to `C=CC(=O)N1CCC[C@@H](n2nc(-c3cnc(C(=O)Nc4cc(C(F)(F)CCC)ccn4)nc3)c3cncc(Cl)c32)C1` [BCD-BTK - 292, (R)-5-(1-(1-acryloylpiperidin-3-yl)-7-chloro-1H-pyrazolo[4,3-c]pyridin-3-yl)-N-(4-(1,1-difluorobutyl)pyridin-2-yl)pyrimidine-2-carboxamide] belongs 100%; to `C=CC(=O)N1CCC[C@@H](n2nc(-c3cnc(C(=O)Nc4cc(C(F)(F)CC)ccn4)nc3)c3cncc(Cl)c32)C1` [BCD-BTK - 293, (R)-5-(1-(1-acryloylpiperidin-3-yl)-7-chloro-1H-pyrazolo[4,3-c]pyridin-3-yl)-N-(4-(1,1-difluoropropyl)pyridin-2-yl)pyrimidine-2-carboxamide], 98.4%; to `CC#CC(=O)N1CCC[C@@H](n2nc(-c3ccc(C(=O)Nc4ccccn4)cc3)c3c(N)ncc(Cl)c32)C1` [BCD-BTK - 295, (R)-4-(4-amino-1-(1-(but-2-ynoyl)piperidin-3-yl)-7-chloro-1H-pyrazolo[4,3-c]pyridin-3-yl)-N-(pyridin-2-yl)benzamide], 89.5%.
With `C=CC(=O)N1CCC[C@@H](n2nc(-c3ccc(-n4ccc(=O)cc4)cc3)c3c(N)ncc(Cl)c32)C1` [BCD-BTK-9, (R)-1-(4-(1-(1-acryloylpiperidin-3-yl)-4-amino-7-chloro-1H-pyrazolo[4,3-c]pyridin-3-yl)phenyl)pyridin-4(1H)-one], the half-maximal cytotoxic concentration (CC50) at 72 h in data set [2] (setting [6]) is > 100 µM. Besides, the “CC50 (HepG2)/IC50 (Mino)” value in data set [3] (Table 10) is >4.25. Moreover, the “Amount of substance in the sample in %” value in data set [1] is on record as 100.0%. In addition, the 50% inhibitory concentration (IC50) is 23.5 µM in data set [4] (setting [7]) and 44.1 µM in data set [5] (setting [7]).
With `C=CC(=O)N1CCC[C@@H](n2nc(-c3ccc(C(=O)Nc4cccc(F)n4)cc3)c3cncc(Cl)c32)C1` [BCD-BTK-225, (R)-4-(1-(1-acryloylpiperidin-3-yl)-7-chloro-1H-pyrazolo[4,3-c]pyridin-3-yl)-N-(6-fluoropyridin-2-yl)benzamide], in data set [1], the “Amount of substance in the sample in %” value was found to be 100%.
Consider `C=CC(=O)N1CCC[C@@H](n2nc(-c3ccc(C(=O)Nc4ccc(F)cn4)cc3)c3cncc(C#N)c32)C1` [BCD-BTK-227, (R)-4-(1-(1-acryloylpiperidin-3-yl)-7-cyano-1H-pyrazolo[4,3-c]pyridin-3-yl)-N-(5-fluoropyridin-2-yl)benzamide], for which the “Amount of substance in the sample in %” value in data set [1] is recorded as 100%.
For the molecule `C=CC(=O)N1CCC[C@@H](n2nc(-c3ccc(C(=O)Nc4cc(C(F)(F)F)ccn4)cc3)c3cncc(F)c32)C1` [BCD-BTK-245, (R)-4-(1-(1-acryloylpiperidin-3-yl)-7-fluoro-1H-pyrazolo[4,3-c]pyridin-3-yl)-N-(4-(trifluoromethyl)pyridin-2-yl)benzamide], the “Amount of substance in the sample in %” value in data set [1] is 100%.
On to `C=CC(=O)N1CCC[C@@H](n2nc(-c3ccc(C(=O)Nc4ncccc4F)cc3)c3cncc(F)c32)C1` [BCD-BTK-249, (R)-4-(1-(1-acryloylpiperidin-3-yl)-7-fluoro-1H-pyrazolo[4,3-c]pyridin-3-yl)-N-(3-fluoropyridin-2-yl)benzamide], for which the CC50 at 72 h in data set [2] (setting [6]) was ~100 µM. Also, in data set [3] (Table 10), the “CC50 (HepG2)/IC50 (Mino)” value was >3.47. Also, the IC50 in data set [4] (setting [7]) was 28.8 µM; in data set [5] (setting [7]), > 50 µM.
On to `CC#CC(=O)N1CC[C@@H](n2nc(-c3ccc(C(=O)Nc4ccccn4)cc3)c3cncc(Cl)c32)C1` [BCD-BTK-262, (R)-4-(1-(1-(but-2-ynoyl)pyrrolidin-3-yl)-7-chloro-1H-pyrazolo[4,3-c]pyridin-3-yl)-N-(pyridin-2-yl)benzamide], for which the “Amount of substance in the sample in %” value in data set [1] came to 100%.
Same read-out and setting: for `CC#CC(=O)N1CC[C@H](n2nc(-c3ccc(C(=O)Nc4ccccn4)cc3)c3cncc(Cl)c32)C1` [BCD-BTK-271, (S)-4-(1-(1-(but-2-ynoyl)pyrrolidin-3-yl)-7-chloro-1H-pyrazolo[4,3-c]pyridin-3-yl)-N-(pyridin-2-yl)benzamide] the value was 100%.
For `C=CC(=O)N1CC[C@@H](n2nc(-c3ccc(C(=O)Nc4ccccn4)cc3)c3cncc(Cl)c32)C1` [BCD-BTK-275, (R)-4-(1-(1-acryloylpyrrolidin-3-yl)-7-chloro-1H-pyrazolo[4,3-c]pyridin-3-yl)-N-(pyridin-2-yl)benzamide], in data set [1], the “Amount of substance in the sample in %” value was 100%.
Regarding `C=CC(=O)N1CC(Cn2nc(-c3ccc(C(=O)Nc4ccccn4)cc3)c3cncc(Cl)c32)C1` [BCD-BTK-276, 4-(7-chloro-1-{[1-(prop-2-enoyl)azetidin-3-yl]methyl}-1H-pyrazolo[4,3-c]pyridin-3-yl)-N-(pyridin-2-yl)benzamide], the “Amount of substance in the sample in %” value in data set [1] is given as 100%.
In the case of `C=CC(=O)N1CCC[C@@H](Cn2nc(-c3ccc(C(=O)Nc4ccccn4)cc3)c3cncc(Cl)c32)C1` [BCD-BTK-279, (R)-4-(1-((1-acryloylpiperidin-3-yl)methyl)-7-chloro-1H-pyrazolo[4,3-c]pyridin-3-yl)-N-(pyridin-2-yl)benzamide], the “Amount of substance in the sample in %” value in data set [1] was determined as 100%.
In turn, `CC#CC(=O)N1CC(n2nc(-c3ccc(Oc4ccncc4)cc3)c3cncc(Cl)c32)C1` [BCD-BTK-281, 1-(3-(7-chloro-3-(4-(pyridin-4-yloxy)phenyl)-1H-pyrazolo[4,3-c]pyridin-1-yl)azetidin-1-yl)but-2-yn-1-one] came in with a CC50 at 72 h in data set [2] (setting [6]) of 15.8 µM. Moreover, the “CC50 (HepG2)/IC50 (Mino)” value in data set [3] (Table 10) turned out to be 2.81. Further, the figures for the IC50 in data set [4] (setting [7]) and in data set [5] (setting [7]) were 5.63 µM and 4.67 µM, respectively.
The molecule `C=CC(=O)N1CC(n2nc(-c3ccc(Oc4ccncc4)cc3)c3cncc(Cl)c32)C1` [BCD-BTK-282, 1-(3-(7-chloro-3-(4-(pyridin-4-yloxy)phenyl)-1H-pyrazolo[4,3-c]pyridin-1-yl)azetidin-1-yl)prop-2-en-1-one] displayed a CC50 at 72 h in data set [2] (setting [6]) of 9.45 µM. Also, the “CC50 (HepG2)/IC50 (Mino)” value in data set [3] (Table 10) amounted to 2.35. Moreover, the IC50 worked out at 4.02 µM in data set [4] (setting [7]) and 4.3 µM in data set [5] (setting [7]).
Take `C=CC(=O)N1CCC[C@@H](n2nc(-c3ccc(Oc4ccccc4)cc3)c3c(N)ncnc32)C1` [Ibrutinib, ibrutinib, reference compound]: the CC50 at 72 h in data set [2] (Table 11) was 54.9 µM. In addition, the “CC50 (HepG2)/IC50 (Mino)” value in data set [3] (Table 11) was 5.98. For the same molecule, the IC50 is 9.18 µM in data set [4] (Table 11, 72 h) and 15.1 µM in data set [5] (Table 11, 72 h).

A word on the CC50: it is the concentration at which the toxic effect on the cells reaches its halfway point. A low value points to harm at low concentration. In general, IC50 refers to the midpoint of a concentration-inhibition curve. A high value points to weaker potency in that assay.
